# Data published in US6458769B1, “Amorphous compound” (AstraZeneca AB, priority 2001, dated 2002).
# Columns and labels:
# [1] = Solubility determination by titrating deionised water, assessed visually; type: physicochemical; details: visual, lower limit = soluble, upper limit = undissolved material present
# Protocol: Solubility was assessed using known quantities (approx 1 mg) and titrating small volumes (2-40 microlitres) of deionised water and assessed visually. The data given are ranges. The lower limit represents soluble and upper limit the presence of undissolved material.
# [2] = literature value, Ip et al. 1992; cited from earlier work
# [3] = Differential Scanning Calorimetry (DSC) glass transition; type: physicochemical; details: dry amorphous lisinopril, anomalous endotherm
# Protocol: Differential Scanning Calorimetry (DSC) was performed on approximately 0.5-3 mg sample, using a Mettler DSC820 instrument, according to standard methods, for example those described in Hohne et al. (1996) Differential scanning Calorimetry, Springer, Berlin.
# [4] = Thermal Mechanical Analysis (TMA) glass transition point; type: physicochemical; details: compressed pellet, heating rate 10° C./min, 30-160° C.
# Protocol: The method involves compressing 140 mg of material in a punch and die (3 mm) to 2 KN. The compressed pellet was then placed on the TMA and the 1.1 mm probe placed on the top face. A heating rate of 10° C./min was used and the sample was heated from 30-160° C.
# [5] = cited from earlier work
compound,measurement,setting,value
"NCCCC[C@H](NC(CCc1ccccc1)C(=O)O)C(=O)N1CCC[C@H]1C(=O)O (stereo partly drawn) [Dihydrate, (S)-1-[N^2-(1-carboxy-3-phenylpropyl]-L-lysyl]-L-proline]",solubility,[1],60 to 65 mg/mL
same,Reference solubility (mg/ml),[2],97^1 mg/ml
"NCCCC[C@H](NC(CCc1ccccc1)C(=O)O)C(=O)N1CCC[C@H]1C(=O)O (stereo partly drawn) [amorphous lisinopril, (S)-1-[N^2-(1-carboxy-3-phenylpropyl]-L-lysyl]-L-proline]",solubility,[1]; listed as Amorphous,900 to 1250 mg/mL
same,glass transition temperature (Tg) by DSC,[3],125 °C
same,glass transition temperature by TMA,[4],129 °C
"NCCCC[C@H](NC(CCc1ccccc1)C(=O)O)C(=O)N1CCC[C@H]1C(=O)O (stereo partly drawn) [lisinopril, (S)-1-[N^2-(1-carboxy-3-phenylpropyl]-L-lysyl]-L-proline]",effective half-life of accumulation,[5]; multiple dosing,about 12.6 hours
same,time to peak serum concentrations,[5]; oral administration,≤ 7 h
